The results in this text go back to US6984660B2, “P-thienylbenzylamides as agonists of angiotensin-(1-7) receptors, and methods of their preparation and use” (Aventis Pharma Deutschland GmbH, priority 2001, dated 2006).

Series [1] has as its system primarily cultivated endothelial cells derived from bovine aortas. Description: Test 2: functional assay, stimulation of intracellular cGMP production in endothelial cells. The format is cell-based. The settings on record: for EC50: Bos taurus, Endothelial cell, production of intracellular cGMP, marker for NO production and release, radioimmunoassay; for stimulatory effect on cGMP after preincubation with a selective angiotensin-(1-7) receptor antagonist: preincubation with [D-Ala^7]-angiotensin-(1-7); for effect on the production of cGMP after preincubation with an AT1 receptor antagonist: preincubation with angiotensin II AT1 subtype antagonist, such as EXP3174; for effect on the production of cGMP after preincubation with an AT2 receptor antagonist: preincubation with angiotensin II AT2 subtype antagonist, such as PD 123,319. On the procedure: The stimulatory effect of the compounds of formula (I) on the production of intracellular cGMP, which is a marker for the production and release of NO in endothelial cells, was measured on primarily cultivated endothelial cells derived from bovine aortas, as described, for example, in J. Pharmacol. Exp. Ther. (1992) 262:729-733, herein incorporated by reference.
After having been enzymatically digested (dispase II; Boehringer, Mannheim) from the bovine aorta, the endothelial cells were taken up in culture medium (Dulbecco's modified Eagle's Ham's F 12 medium 1:1 containing penicillin (10 U/L), streptomycin (10 ug/L), L-glutamine (1 mmol/L), glutathione and L-(+)-ascorbic acid (in each case 5 mg/L) and heat-inactivated fetal calf serum (20%)), washed once (centrifugation at 170×g, 10 min) and resuspended in culture medium. This cell suspension was seeded in 6-well plates (Nunc Intermed, Wiesbaden) (˜250 μg of protein or […] per well), with the wells then being filled with culture medium and the plates kept at 37° C. in an incubator which was moistened and gassed with 95% O2-5% CO2.
After confluence had been reached (6-8 days after seeding), the culture medium was removed and the cell monolayer was washed twice with warm HEPES/Tyrode's solution. After that, the cells were preincubated, at 37° C. for 15 min, in HEPES/Tyrode's solution containing IBMX (3-isobutyl-1-methylxanthine, 10^−4 mol/L, Serva, Heidelberg). The incubation was started by adding SOD (bovine erythrocyte superoxide dismutase, 3×10^−7 mol/L, Serva, Heidelberg) and the test substances of formula (I) at the given concentrations. After the appropriate incubation time, the incubation medium was aspirated and the cells which remained behind were immediately extracted in 1 N formic acid/acetone (v/v, 15:85) and scraped off. The resulting suspension was ultrasonicated (10 sec) and then centrifuged down (3000×g, 10 min). For the purpose of determining cGMP by means of radioimmunoassay (New England Nuclear, Boston, Mass.), the supernatant was lyophilized and the lyophilisate taken up in sodium acetate buffer (0.05 mol/L; pH 6.2). The content (pmol) of intracellular cGMP was related to mg of cell protein.

Consider `CCNC(=O)NS(=O)(=O)c1sc(CC(C)C)cc1-c1ccc(CN(C(=O)c2ccccc2)[C@H](C(=O)OCC)C(C)C)cc1` [Example 5, Ethyl 2-N-benzoyl-2-N-[4-[2-(ethylaminocarbonylsulfonamido)-5-isobutyl-3-thienyl]benzyl]amino-3-methyl-L-butyrate], for which the melting point is 88 to 90 °C. The compound `CCNC(=O)NS(=O)(=O)c1sc(CC(C)C)cc1-c1ccc(CN(C(=O)c2ccccc2)[C@H](C(=O)OC)C(C)C)cc1` [Example 4, Methyl 2-N-benzoyl-2-N-[4-[2-(ethylaminocarbonylsulfonamido)-5-isobutyl-3-thienyl]benzyl]amino-3-methyl-L-butyrate] registered a melting point of 65 °C. In addition, in series [1], the EC50 was found to be 600 nM, the “stimulatory effect on cGMP after preincubation with a selective angiotensin-(1-7) receptor antagonist” value is “inhibited”, the “effect on the production of cGMP after preincubation with an AT1 receptor antagonist” value is recorded as “not influenced” and the “effect on the production of cGMP after preincubation with an AT2 receptor antagonist” value is recorded as “not influenced”.

In turn, `CNC(=O)NS(=O)(=O)c1sc(CC(C)C)cc1-c1ccc(CN(C(=O)c2ccco2)[C@H](C(=O)OC)C(C)C)cc1` [Example 14, Methyl 2-N-(2-furanoyl)-2-N-[4-[2-(methylaminocarbonylsulfonamido)-5-isobutyl-3-thienyl]benzyl]amino-3-methyl-L-butyrate] displayed a melting point of 84 °C.

On to `CNC(=O)NS(=O)(=O)c1sc(CC(C)C)cc1-c1ccc(CN(C(=O)c2ccco2)[C@H](C(=O)O)C(C)C)cc1` [Example 15, 2-N-(2-Furanoyl)-2-N-[4-[2-(methylaminocarbonylsulfonamido)-5-isobutyl-3-thienyl]benzyl]amino-3-methyl-L-butyric acid], for which the melting point is 134 °C.

For `CCCCOC(=O)NS(=O)(=O)c1sc(CC(C)C)cc1-c1ccc(CN(C(=O)CCC(=O)O)[C@H](C(=O)O)C(C)C)cc1` [Example 17, 2-N-(3-Carboxypropionyl)-2-N-[4-[2-(n-butyloxycarbonylsulfonamido)-5-isobutyl-3-thienyl]benzyl]amino-3-methyl-L-butyric acid], the melting point is 66 °C.

Turning to `CCNC(=O)NS(=O)(=O)c1sc(CC(C)C)cc1-c1ccc(CN(C(C)=O)[C@H](C(=O)OCC)C(C)C)cc1` [Example 10, Ethyl 2-N-acetyl-2-N-[4-[2-(ethylaminocarbonylsulfonamido)-5-isobutyl-3-thienyl]benzyl]amino-3-methyl-L-butyrate], the melting point was 81 °C. The same measure, in the same setting: then `CCCCOC(=O)NS(=O)(=O)c1sc(CC(C)C)cc1-c1ccc(CN(C(=O)c2ccco2)[C@H](C(=O)O)C(C)C)cc1` [Example 13, 2-N-(2-Furanoyl)-2-N-[4-[2-(n-butyloxycarbonylsulfonamido)-5-isobutyl-3-thienyl]benzyl]amino-3-methyl-L-butyric acid], with 93 °C. Compound `CCNC(=O)NS(=O)(=O)c1sc(CC(C)C)cc1-c1ccc(CN(C(C)=O)[C@H](C(=O)O)C(C)C)cc1` [Example 11, 2-N-Acetyl-2-N-[4-[2-(ethylaminocarbonylsulfonamido)-5-isobutyl-3-thienyl]benzyl]amino-3-methyl-L-butyric acid] returned a melting point of 136 °C. Same read-out and setting: then `CCNC(=O)NS(=O)(=O)c1sc(CC(C)C)cc1-c1ccc(CN(C(=O)c2ccccc2)[C@H](C(=O)O)C(C)C)cc1` [Example 6, 2-N-Benzoyl-2-N-[4-[2-(ethylaminocarbonylsulfonamido)-5-isobutyl-3-thienyl]benzyl]amino-3-methyl-L-butyric acid], with 149 °C. `CCNC(=O)NS(=O)(=O)c1sc(CC(C)C)cc1-c1ccc(CN(C(C)=O)[C@H](C(=O)OC)C(C)C)cc1` [Example 9, Methyl 2-N-acetyl-2-N-[4-[2-(ethylaminocarbonylsulfonamido)-5-isobutyl-3-thienyl]benzyl]amino-3-methyl-L-butyrate]: the melting point is 130 °C. Besides, in series [1], the EC50 came to 40 nM, the “stimulatory effect on cGMP after preincubation with a selective angiotensin-(1-7) receptor antagonist” value is on record as “inhibited”, the “effect on the production of cGMP after preincubation with an AT1 receptor antagonist” value is reported as “not influenced” and the “effect on the production of cGMP after preincubation with an AT2 receptor antagonist” value is reported as “not influenced”.

In turn, `CNC(=O)NS(=O)(=O)c1sc(CC(C)C)cc1-c1ccc(CN(C(=O)CCC(=O)OC)[C@H](C(=O)OC)C(C)C)cc1` [Example 18] had a melting point of 158 °C.

As usually defined, the melting point is the temperature, or range, at which the solid turns liquid. Broadly, the EC50 is the midpoint of the concentration-response curve.
